Species: Rattus norvegicus
Experiment: Open TG-GATES - Regimen: Daily Repeat
Format: toxicity, organism-based, Sprague-Dawley
Design: regimen Daily Repeat, gender Male, age 6 weeks
Settings: in vivo, po, route gavage; for gamma-GTP / ALP / ALT / AST / BUN / CRE / Ca / DBIL / GLC / IP / K / LDH / Na / PL / RALB / TBIL / TC / TG / TP: tissue Plasma; for APTT / Bas / Eos / Fbg / Hb / Ht / Lym / MCH / MCHC / MCV / Mono / Neu / PT / Plat / RBC / Ret / WBC: tissue Blood; for KIDNEY_L / KIDNEY_R / KIDNEY_TOTAL: tissue Kidney; for LIVER: tissue Liver
[1] = 150 mg/kg, 72 h, dose level High, time 3 day
[2] = 150 mg/kg, […], dose level High, time 7 day
[3] = 150 mg/kg, […], dose level High, time 14 day
[4] = 150 mg/kg, […], dose level High, time 28 day

Question: Which gamma-GTP (50 mg/kg, […], dose level Middle, time 28 day) does the source give for `Oc1ncnc2[nH]ncc12` [ALLOPURINOL] here?
Answer: 1.6 IU/L

Question: And the TERMINAL_BW [1]?
Answer: 225 g

Question: What about the APTT [1] of the same molecule?
Answer: 15.8 s

Question: What about the Bas [1] of the same molecule?
Answer: 0%

Question: What about the Eos [1] of the same molecule?
Answer: 0.8%

Question: And the Fbg [1]?
Answer: 368.2 mg/dL

Question: And the Hb [1]?
Answer: 14 g/dL

Question: What about the Ht [1] of the same molecule?
Answer: 41.8%

Question: What about the Lym [1] of the same molecule?
Answer: 70.2%

Question: And the MCH [1]?
Answer: 21.7 pg

Question: And the MCHC [1]?
Answer: 33.4%

Question: And the MCV [1]?
Answer: 65.1 fL

Question: What about the Mono [1] of the same molecule?
Answer: 13%

Question: What about the Neu [1] of the same molecule?
Answer: 16%

Question: And the PT [1]?
Answer: 12.5 s

Question: And the Plat [1]?
Answer: 115.9 x10_4/uL

Question: And the RBC [1]?
Answer: 642.4 x10_4/ul

Question: And the Ret [1]?
Answer: 5.2%

Question: And the WBC [1]?
Answer: 122.6 x10_2/uL

Question: And the KIDNEY_L [1]?
Answer: 1.6 g

Question: And the KIDNEY_R [1]?
Answer: 1.7 g

Question: What about the KIDNEY_TOTAL [1] of the same molecule?
Answer: 3.2 g

Question: And the LIVER [1]?
Answer: 9.7 g

Question: And the ALP [1]?
Answer: 838.2 IU/L

Question: What about the ALT [1] of the same molecule?
Answer: 27.6 IU/L

Question: What about the AST [1] of the same molecule?
Answer: 61.2 IU/L

Question: What about the BUN [1] of the same molecule?
Answer: 35.2 mg/dL

Question: And the CRE [1]?
Answer: 0.8 mg/dL

Question: What about the Ca [1] of the same molecule?
Answer: 11.5 mg/dL

Question: What about the DBIL [1] of the same molecule?
Answer: 0 mg/dL

Question: What about the GLC [1] of the same molecule?
Answer: 192 mg/dL

Question: And the IP [1]?
Answer: 8 mg/dL

Question: What about the K [1] of the same molecule?
Answer: 4.8 meq/L

Question: And the LDH [1]?
Answer: 165.4 IU/L

Question: And the Na [1]?
Answer: 139 meq/L

Question: And the PL [1]?
Answer: 142 mg/dL

Question: What about the RALB [1] of the same molecule?
Answer: 3.8 g/dL

Question: And the TBIL [1]?
Answer: 0.3 mg/dL

Question: And the TC [1]?
Answer: 87 mg/dL

Question: And the TG [1]?
Answer: 47.8 mg/dL

Question: What about the TP [1] of the same molecule?
Answer: 6.3 g/dL

Question: What about the gamma-GTP [1] of the same molecule?
Answer: 4.2 IU/L

Question: And the TERMINAL_BW [2]?
Answer: 245.1 g

Question: And the TERMINAL_BW [3]?
Answer: 248.1 g

Question: What about the TERMINAL_BW [4] of the same molecule?
Answer: 319.9 g

Question: What about the APTT [2] of the same molecule?
Answer: 16.2 s

Question: What about the Bas [2] of the same molecule?
Answer: 0%

Question: And the Eos [2]?
Answer: 1%

Question: What about the Fbg [2] of the same molecule?
Answer: 300.7 mg/dL

Question: What about the Hb [2] of the same molecule?
Answer: 14.2 g/dL

Question: And the Ht [2]?
Answer: 42.6%

Question: And the Lym [2]?
Answer: 77.7%

Question: And the MCH [2]?
Answer: 21 pg

Question: What about the MCHC [2] of the same molecule?
Answer: 33.2%

Question: And the MCV [2]?
Answer: 63.2 fL

Question: And the Mono [2]?
Answer: 6.7%

Question: What about the Neu [2] of the same molecule?
Answer: 15.3%

Question: What about the PT [2] of the same molecule?
Answer: 12.9 s

Question: And the Plat [2]?
Answer: 122.5 x10_4/uL

Question: And the RBC [2]?
Answer: 676.7 x10_4/ul

Question: What about the Ret [2] of the same molecule?
Answer: 2.8%

Question: And the WBC [2]?
Answer: 161 x10_2/uL

Question: And the APTT [3]?
Answer: 16.1 s

Question: What about the Bas [3] of the same molecule?
Answer: 0%

Question: And the Eos [3]?
Answer: 1%

Question: What about the Fbg [3] of the same molecule?
Answer: 414 mg/dL

Question: And the Hb [3]?
Answer: 14.4 g/dL

Question: And the Ht [3]?
Answer: 42.8%

Question: What about the Lym [3] of the same molecule?
Answer: 52%

Question: And the MCH [3]?
Answer: 19.8 pg

Question: What about the MCHC [3] of the same molecule?
Answer: 33.5%

Question: What about the MCV [3] of the same molecule?
Answer: 59 fL

Question: And the Mono [3]?
Answer: 7%

Question: What about the Neu [3] of the same molecule?
Answer: 40.4%

Question: And the PT [3]?
Answer: 13.3 s

Question: And the RBC [3]?
Answer: 725 x10_4/ul

Question: What about the Ret [3] of the same molecule?
Answer: 2.1%

Question: And the WBC [3]?
Answer: 209.4 x10_2/uL

Question: What about the APTT [4] of the same molecule?
Answer: 15.3 s

Question: What about the Bas [4] of the same molecule?
Answer: 0%

Question: What about the Eos [4] of the same molecule?
Answer: 0.5%

Question: What about the Fbg [4] of the same molecule?
Answer: 319.5 mg/dL

Question: And the Hb [4]?
Answer: 13.7 g/dL

Question: And the Ht [4]?
Answer: 40.8%

Question: What about the Lym [4] of the same molecule?
Answer: 74.8%

Question: And the MCH [4]?
Answer: 19.2 pg

Question: What about the MCHC [4] of the same molecule?
Answer: 33.6%

Question: What about the MCV [4] of the same molecule?
Answer: 57.1 fL

Question: What about the Mono [4] of the same molecule?
Answer: 3.2%

Question: What about the Neu [4] of the same molecule?
Answer: 21%

Question: What about the PT [4] of the same molecule?
Answer: 13 s

Question: What about the Plat [4] of the same molecule?
Answer: 117.9 x10_4/uL

Question: And the RBC [4]?
Answer: 713.5 x10_4/ul

Question: What about the Ret [4] of the same molecule?
Answer: 3.9%

Question: And the WBC [4]?
Answer: 344.2 x10_2/uL

Question: What about the KIDNEY_L [2] of the same molecule?
Answer: 1.8 g

Question: What about the KIDNEY_R [2] of the same molecule?
Answer: 1.9 g

Question: What about the KIDNEY_TOTAL [2] of the same molecule?
Answer: 3.7 g

Question: What about the KIDNEY_L [3] of the same molecule?
Answer: 2.8 g

Question: What about the KIDNEY_R [3] of the same molecule?
Answer: 2.9 g

Question: What about the KIDNEY_TOTAL [3] of the same molecule?
Answer: 5.7 g

Question: And the KIDNEY_L [4]?
Answer: 3 g

Question: And the KIDNEY_R [4]?
Answer: 2.7 g

Question: And the KIDNEY_TOTAL [4]?
Answer: 5.6 g

Question: What about the LIVER [4] of the same molecule?
Answer: 12.1 g

Question: What about the ALP [2] of the same molecule?
Answer: 697 IU/L

Question: And the ALT [2]?
Answer: 24.7 IU/L

Question: What about the AST [2] of the same molecule?
Answer: 60.7 IU/L

Question: And the BUN [2]?
Answer: 38.7 mg/dL

Question: And the CRE [2]?
Answer: 0.8 mg/dL

Question: And the Ca [2]?
Answer: 11 mg/dL

Question: And the DBIL [2]?
Answer: 0.0367 mg/dL

Question: And the GLC [2]?
Answer: 190 mg/dL

Question: And the IP [2]?
Answer: 5.6 mg/dL

Question: And the K [2]?
Answer: 4.6 meq/L

Question: And the LDH [2]?
Answer: 96.3 IU/L

Question: What about the Na [2] of the same molecule?
Answer: 141.3 meq/L

Question: And the PL [2]?
Answer: 139.7 mg/dL

Question: And the RALB [2]?
Answer: 3.8 g/dL

Question: What about the TBIL [2] of the same molecule?
Answer: 0.2 mg/dL

Question: And the TC [2]?
Answer: 80.7 mg/dL

Question: And the TG [2]?
Answer: 64.3 mg/dL

Question: What about the TP [2] of the same molecule?
Answer: 6.2 g/dL

Question: What about the gamma-GTP [2] of the same molecule?
Answer: 3 IU/L

Question: What about the ALP [3] of the same molecule?
Answer: 608.6 IU/L

Question: And the ALT [3]?
Answer: 23.4 IU/L

Question: What about the AST [3] of the same molecule?
Answer: 62.8 IU/L

Question: And the BUN [3]?
Answer: 66.2 mg/dL

Question: What about the CRE [3] of the same molecule?
Answer: 1 mg/dL

Question: And the DBIL [3]?
Answer: 0 mg/dL

Question: And the GLC [3]?
Answer: 177 mg/dL

Question: What about the IP [3] of the same molecule?
Answer: 5.1 mg/dL

Question: And the K [3]?
Answer: 4.5 meq/L

Question: And the LDH [3]?
Answer: 150.8 IU/L

Question: What about the Na [3] of the same molecule?
Answer: 140.2 meq/L

Question: And the PL [3]?
Answer: 154.8 mg/dL

Question: What about the RALB [3] of the same molecule?
Answer: 3.3 g/dL

Question: And the TBIL [3]?
Answer: 0.3 mg/dL

Question: What about the TC [3] of the same molecule?
Answer: 91.2 mg/dL

Question: What about the TP [3] of the same molecule?
Answer: 6.1 g/dL

Question: And the gamma-GTP [3]?
Answer: 6 IU/L

Question: What about the ALP [4] of the same molecule?
Answer: 482 IU/L

Question: And the ALT [4]?
Answer: 29.8 IU/L

Question: What about the AST [4] of the same molecule?
Answer: 68.8 IU/L

Question: And the BUN [4]?
Answer: 61.2 mg/dL

Question: What about the CRE [4] of the same molecule?
Answer: 1.1 mg/dL

Question: And the Ca [4]?
Answer: 11.3 mg/dL

Question: And the DBIL [4]?
Answer: 0.015 mg/dL

Question: And the GLC [4]?
Answer: 163.5 mg/dL

Question: What about the IP [4] of the same molecule?
Answer: 5.2 mg/dL

Question: And the K [4]?
Answer: 4.8 meq/L

Question: What about the LDH [4] of the same molecule?
Answer: 150.8 IU/L

Question: And the Na [4]?
Answer: 141.5 meq/L

Question: And the PL [4]?
Answer: 162.5 mg/dL

Question: And the RALB [4]?
Answer: 3.7 g/dL

Question: What about the TBIL [4] of the same molecule?
Answer: 0.2 mg/dL

Question: And the TC [4]?
Answer: 98.2 mg/dL

Question: What about the TG [4] of the same molecule?
Answer: 79 mg/dL

Question: And the TP [4]?
Answer: 6.3 g/dL

Question: What about the gamma-GTP [4] of the same molecule?
Answer: 3.8 IU/L

Reference: ChEMBL document CHEMBL3885861, “Open TG-GATES”
